{"source": "patent US11149292B2", "about": "“Processes for the preparation of (R)-2-(7-(4-cyclopentyl-3-(trifluoromethyl)benzyloxy)-1,2,3,4-tetrahydrocyclopenta[B]indol-3-yl)acetic acid and salts thereof” (Arena Pharmaceuticals, Inc., priority 2010, dated 2021)", "key": {"[1]": {"target": "S1P1 receptor (Homo sapiens (Human), UniProt P21453)", "sequence (P21453 whole entry)": "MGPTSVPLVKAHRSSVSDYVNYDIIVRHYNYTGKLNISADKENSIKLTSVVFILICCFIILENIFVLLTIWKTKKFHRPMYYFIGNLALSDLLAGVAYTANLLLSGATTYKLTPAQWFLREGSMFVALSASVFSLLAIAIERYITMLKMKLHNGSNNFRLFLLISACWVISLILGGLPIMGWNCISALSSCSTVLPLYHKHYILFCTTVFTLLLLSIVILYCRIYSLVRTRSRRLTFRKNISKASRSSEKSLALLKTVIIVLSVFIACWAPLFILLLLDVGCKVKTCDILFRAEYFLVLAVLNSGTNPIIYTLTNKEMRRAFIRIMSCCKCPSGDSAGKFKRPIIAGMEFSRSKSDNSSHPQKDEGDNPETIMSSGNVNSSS", "assay": "HTRF assay for direct cAMP measurement in recombinant CHO-K1 cells stably transfected with S1P1", "format": "cell-based", "excerpt": "CHO-K1 cells were obtained from ATCC® (Manassas, Va.; Catalog #CCL-61). […] The HTRF® assay has been used to determine EC50 values for S1P1 receptor agonists.\nHTRF® assay kit was purchased from Cisbio-US, Inc. (Bedford, Mass.; Catalog #62AM4PEC). The HTRF® assay supported by the kit is a competitive immunoassay between endogenous cAMP produced by the CHO-K1 cells and tracer cAMP labeled with the dye d2. The tracer binding is visualized by a monoclonal anti-cAMP antibody labeled with Cryptate. The specific signal (i.e., fluorescence resonance energy transfer, FRET) is inversely proportional to the concentration of unlabeled cAMP in the standard or sample.\nThe fluorescence ratio (665 nm/620 nm) of the standards (0.17 to 712 nM cAMP) included in the assay was calculated and used to generate a cAMP standard curve according to the kit manufacturer's instructions. The fluorescence ratio of the samples (test compound or compound buffer) was calculated and used to deduce respective cAMP concentrations by reference to the cAMP standard curve.\nThe HTRF® assay was carried out using a two-step protocol essentially according to the kit manufacturer's instructions, in […] total volume per well in 384-well plate format (ProxiPlates; PerkinElmer, Fremont, Calif.; catalog #6008280). […] The plate was then further incubated at room temperature for 1 hour, after which the assay plate was read. […]"}, "[2]": {"system": "Male BALB/c mice", "assay": "Mouse Peripheral Lymphocyte Lowering (PLL) assay", "format": "in vivo", "conditions": "1.00 mg/kg oral dose; blood at 5 hours post-dose; FIG. 1", "description": "Male BALB/c mice (Charles River Laboratories, Wilmington, Mass.) were housed four per cage and maintained in a humidity-controlled (40 to 60%) and temperature-controlled (68 to 72° F.) facility on a 12 h:12 h light/dark cycle (lights on at 6:30 am) with free access to food (Harlan Teklad, Orange, Calif., Rodent Diet 8604) and water. Mice were allowed one week of habituation to the animal facility before testing. PLL Assay: […] Peripheral blood samples were collected at 5 hours post-dose. The mice were anesthetized with isoflurane and blood was collected via cardiac puncture. A complete cell count (CBC), including lymphocyte count, was obtained using a CELL-DYN® 3700 (Abbott Laboratories, Abbott Park, Ill.) instrument. Results are presented in FIG. 1, in which peripheral blood lymphocyte (PBL) count is shown for the 5 hour group."}, "[3]": {"system": "Male Sprague-Dawley rats", "assay": "Rat Peripheral Lymphocyte Lowering (PLL) assay", "format": "in vivo", "conditions": "1.00 mg/kg oral dose; blood at 5 hours post-dose; FIG. 2", "description": "Male Sprague-Dawley rats (7 weeks of age at start of study) (Charles River Laboratories) were housed two per cage and maintained in a humidity-controlled (40-60%) and temperature-controlled (68-72° F.) facility on a 12 h:12 h light/dark cycle (lights on at 6:30 am) with free access to food (Harlan Teklad, Orange, Calif., Rodent Diet 8604) and water. Rats were allowed one week of habituation to the animal facility before testing. […] Peripheral blood samples were collected at 5 hours post-dose. Blood was collected via indwelling catheter. A complete cell count (CBC), including lymphocyte count, was obtained using a CELL-DYN® 3700 (Abbott Laboratories, Abbott Park, Ill.) instrument. Results are presented in FIG. 2, in which peripheral blood lymphocyte (PBL) count is shown for the 5 hour group."}, "[4]": {"system": "Female Lewis rats", "assay": "Collagen-induced arthritis rat model", "format": "in vivo", "conditions": "0.3, 1 and 3 mg/kg p.o., q.d., day 0 to day 16; FIG. 3", "description": "Female Lewis rats were used in this study. Acclimated animals were anesthetized with isoflurane and given the first collagen injection (day 0). On day 6, they were anesthetized again for the second collagen injection. Collagen was prepared by making a 4 mg/mL solution in 0.01 N acetic acid. Equal volumes of collagen and incomplete Freund's adjuvant were emulsified by hand mixing until a bead of this material held its form when placed in water. Each animal received 300 μL of the mixture each time, spread over 3 subcutaneous sites on the back. Treatment (p.o., q.d., 5 mL/kg dosing volume) began on day 0 and continued through day 16 with vehicle or compounds given at 24 h intervals. Rats were weighed on days 0, 3, 6 and 9 through 17 and caliper measurements of the ankles taken on days 9 through 17."}, "[5]": {"system": "Female C57BL/6 mice", "assay": "MOG-induced experimental autoimmune encephalomyelitis (EAE) in mice", "format": "in vivo, mouse", "conditions": "0.3, 1 and 3 mg/kg orally once a day from day 3 until day 21; FIG. 4"}, "[6]": {"system": "Male Sprague-Dawley rats", "assay": "Cardiac telemetry in the rat (exemplary bradycardia assay)", "format": "in vivo", "conditions": "oral, vehicle PEG400; heart rate measured over a 120 min period", "description": "Male Sprague-Dawley rats (250-300 g at time of surgery) were implanted by Charles River Laboratories (Wilmington, Mass.) with cardiac transmitting devices (Data Sciences PhysioTel C50-PXT) into the peritoneal space, with a pressure-sensing catheter inserted into the descending aorta. Rats are allowed at least one week to recover. Rats were housed in individual cages and maintained in a humidity-controlled (30-70%) and temperature-controlled (20-22° C.) facility on a 12 h:12 h light/dark cycle (lights on at 7:00 am) with free access to food (Harlan-Teklad, Orange, Calif., Rodent Diet 8604) and water. Rats were allowed one week of habituation to the animal facility before testing.\nThe implanted transmitting devices transmitted continuous measurements of blood pressure (systolic, diastolic, mean arterial, pulse), heart rate, body temperature, and motor activity in freely moving conscious animals. […] Telemetry recording occurred over a 21-h period, starting at noon and continuing until 9:00 am the following day. […]\nBy way of illustration and not limitation, the rats were administered vehicle (PEG 400) and (R)-2-(7-(4-cyclopentyl-3-(trifluoromethyl)benzyloxy)-1,2,3,4-tetrahydrocyclopenta[b]indol-3-yl)acetic acid and heart rate was then measured over a 120 min period."}}, "data": [{"smiles": "O=C(O)C[C@H]1CCc2c1[nH]c1ccc(OCc3ccc(C4CCCC4)c(C(F)(F)F)c3)cc21", "note": "[(R)-2-(7-(4-cyclopentyl-3-(trifluoromethyl)benzyloxy)-1,2,3,4-tetrahydrocyclopenta[b]indol-3-yl)acetic acid]", "values": [{"measurement": "S1P1 receptor agonism (decrease of cAMP concentration)", "setting": "[1]", "result": "agonist of the S1P1 receptor"}, {"measurement": "peripheral blood lymphocyte (PBL) count lowering vs vehicle", "setting": "[2]", "result": "exhibited activity for inducing PBL lowering (lymphopenia)"}, {"measurement": "peripheral blood lymphocyte (PBL) count lowering vs vehicle", "setting": "[3]", "result": "exhibited activity for inducing PBL lowering (lymphopenia)"}, {"measurement": "reduction of mean ankle diameter", "setting": "[4]", "result": "exhibited activity for reducing mean ankle diameter"}, {"measurement": "reduction of severity of disease symptoms (clinical score) in EAE", "setting": "[5]", "result": "exhibited activity in the mouse EAE assay"}, {"measurement": "reduction of heart rate (bradycardia) vs vehicle", "setting": "[6]", "result": "no or substantially no reduction of heart rate"}]}]}
